pIC50: −log10 of the molar value.
Tests used:
TYK2 JH2 domain = TYK2 JH2 domain (Homo sapiens (Human), UniProt P29597); assay: TYK2 JH2 NanoBRET assay; assay type: binding; conditions: Table 20, read-out: TYK2 IC50
How it was run: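 Tracer displacement measured by BRET ratio (acceptor over donor) in live HEK293T cells transfected with a NanoLuc-tagged TYK2 JH2 construct; cells co-exposed to test compound and 0.5 µM final K10 tracer for 2 h before substrate/extracellular inhibitor addition.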

human JAK1 = human JAK1 (Homo sapiens (Human), UniProt P23458); assay: JAK1 TR-FRET kinase assay; assay type: biochemical; conditions: TR-FRET, JAK1 2.5 nM
Chain of human JAK1 (P23458 whole entry): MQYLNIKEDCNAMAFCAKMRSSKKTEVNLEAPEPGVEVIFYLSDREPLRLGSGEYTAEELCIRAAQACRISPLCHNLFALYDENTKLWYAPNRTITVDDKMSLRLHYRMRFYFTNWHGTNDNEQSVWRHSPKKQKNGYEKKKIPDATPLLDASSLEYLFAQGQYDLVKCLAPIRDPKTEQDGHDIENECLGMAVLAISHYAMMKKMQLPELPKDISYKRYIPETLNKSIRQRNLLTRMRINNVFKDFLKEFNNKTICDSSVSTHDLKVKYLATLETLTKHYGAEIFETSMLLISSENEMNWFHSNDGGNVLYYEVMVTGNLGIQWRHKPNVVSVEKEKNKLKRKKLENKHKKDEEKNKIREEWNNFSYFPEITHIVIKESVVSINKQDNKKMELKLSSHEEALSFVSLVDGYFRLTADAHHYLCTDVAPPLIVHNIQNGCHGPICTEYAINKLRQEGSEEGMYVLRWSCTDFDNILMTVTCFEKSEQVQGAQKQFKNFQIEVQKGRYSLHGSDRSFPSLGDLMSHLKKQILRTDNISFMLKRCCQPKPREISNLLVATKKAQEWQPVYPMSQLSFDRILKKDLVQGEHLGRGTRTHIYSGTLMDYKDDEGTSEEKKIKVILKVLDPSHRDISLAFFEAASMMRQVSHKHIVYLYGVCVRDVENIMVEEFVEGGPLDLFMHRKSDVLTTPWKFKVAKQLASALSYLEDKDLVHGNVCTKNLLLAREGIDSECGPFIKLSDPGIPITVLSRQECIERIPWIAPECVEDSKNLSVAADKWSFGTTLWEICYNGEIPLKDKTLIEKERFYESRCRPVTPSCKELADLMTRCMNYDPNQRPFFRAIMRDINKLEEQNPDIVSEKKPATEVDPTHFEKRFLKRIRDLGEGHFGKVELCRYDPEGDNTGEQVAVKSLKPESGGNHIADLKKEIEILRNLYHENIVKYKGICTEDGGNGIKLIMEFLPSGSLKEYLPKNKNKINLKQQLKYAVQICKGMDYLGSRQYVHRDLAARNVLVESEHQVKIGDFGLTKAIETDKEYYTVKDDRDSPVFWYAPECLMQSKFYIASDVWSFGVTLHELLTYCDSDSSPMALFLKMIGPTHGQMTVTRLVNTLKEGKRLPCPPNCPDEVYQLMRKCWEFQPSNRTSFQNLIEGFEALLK

human JAK2 = human JAK2 (Homo sapiens (Human), UniProt O60674); assay: JAK2 TR-FRET kinase assay; assay type: biochemical; conditions: JAK2 0.025 nM
Chain of human JAK2 (O60674 whole entry): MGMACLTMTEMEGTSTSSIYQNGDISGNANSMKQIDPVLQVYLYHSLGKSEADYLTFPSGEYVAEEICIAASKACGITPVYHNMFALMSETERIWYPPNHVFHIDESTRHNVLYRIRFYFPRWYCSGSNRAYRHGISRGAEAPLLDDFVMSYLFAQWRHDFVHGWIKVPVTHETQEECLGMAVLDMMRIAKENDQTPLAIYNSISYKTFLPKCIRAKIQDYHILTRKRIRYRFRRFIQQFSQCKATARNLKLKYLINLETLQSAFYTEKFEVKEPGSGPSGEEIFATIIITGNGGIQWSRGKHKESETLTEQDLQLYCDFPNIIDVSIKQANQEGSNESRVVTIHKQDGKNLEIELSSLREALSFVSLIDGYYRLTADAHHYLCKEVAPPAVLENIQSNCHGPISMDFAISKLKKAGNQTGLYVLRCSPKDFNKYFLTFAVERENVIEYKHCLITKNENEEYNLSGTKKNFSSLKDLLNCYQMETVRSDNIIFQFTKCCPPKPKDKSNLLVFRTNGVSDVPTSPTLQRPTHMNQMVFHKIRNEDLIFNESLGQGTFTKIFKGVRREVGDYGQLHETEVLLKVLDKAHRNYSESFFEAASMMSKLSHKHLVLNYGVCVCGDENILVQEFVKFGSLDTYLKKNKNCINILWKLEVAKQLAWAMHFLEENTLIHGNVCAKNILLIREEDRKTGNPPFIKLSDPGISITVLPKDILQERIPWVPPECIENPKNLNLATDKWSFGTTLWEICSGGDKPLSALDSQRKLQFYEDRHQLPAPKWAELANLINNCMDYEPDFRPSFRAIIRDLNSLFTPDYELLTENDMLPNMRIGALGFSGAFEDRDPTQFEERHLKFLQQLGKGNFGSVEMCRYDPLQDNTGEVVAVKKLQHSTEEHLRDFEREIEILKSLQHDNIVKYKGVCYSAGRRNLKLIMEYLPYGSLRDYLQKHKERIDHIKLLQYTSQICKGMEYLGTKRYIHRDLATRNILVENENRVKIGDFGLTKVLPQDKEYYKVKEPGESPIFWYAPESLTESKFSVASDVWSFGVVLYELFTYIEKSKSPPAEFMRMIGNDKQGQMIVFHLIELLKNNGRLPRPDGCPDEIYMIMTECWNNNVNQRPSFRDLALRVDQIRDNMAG

human JAK3 = human JAK3 (Homo sapiens (Human), UniProt P52333); assay: JAK3 TR-FRET kinase assay; assay type: biochemical; conditions: JAK3 0.0125 nM
Chain of human JAK3 (P52333 whole entry): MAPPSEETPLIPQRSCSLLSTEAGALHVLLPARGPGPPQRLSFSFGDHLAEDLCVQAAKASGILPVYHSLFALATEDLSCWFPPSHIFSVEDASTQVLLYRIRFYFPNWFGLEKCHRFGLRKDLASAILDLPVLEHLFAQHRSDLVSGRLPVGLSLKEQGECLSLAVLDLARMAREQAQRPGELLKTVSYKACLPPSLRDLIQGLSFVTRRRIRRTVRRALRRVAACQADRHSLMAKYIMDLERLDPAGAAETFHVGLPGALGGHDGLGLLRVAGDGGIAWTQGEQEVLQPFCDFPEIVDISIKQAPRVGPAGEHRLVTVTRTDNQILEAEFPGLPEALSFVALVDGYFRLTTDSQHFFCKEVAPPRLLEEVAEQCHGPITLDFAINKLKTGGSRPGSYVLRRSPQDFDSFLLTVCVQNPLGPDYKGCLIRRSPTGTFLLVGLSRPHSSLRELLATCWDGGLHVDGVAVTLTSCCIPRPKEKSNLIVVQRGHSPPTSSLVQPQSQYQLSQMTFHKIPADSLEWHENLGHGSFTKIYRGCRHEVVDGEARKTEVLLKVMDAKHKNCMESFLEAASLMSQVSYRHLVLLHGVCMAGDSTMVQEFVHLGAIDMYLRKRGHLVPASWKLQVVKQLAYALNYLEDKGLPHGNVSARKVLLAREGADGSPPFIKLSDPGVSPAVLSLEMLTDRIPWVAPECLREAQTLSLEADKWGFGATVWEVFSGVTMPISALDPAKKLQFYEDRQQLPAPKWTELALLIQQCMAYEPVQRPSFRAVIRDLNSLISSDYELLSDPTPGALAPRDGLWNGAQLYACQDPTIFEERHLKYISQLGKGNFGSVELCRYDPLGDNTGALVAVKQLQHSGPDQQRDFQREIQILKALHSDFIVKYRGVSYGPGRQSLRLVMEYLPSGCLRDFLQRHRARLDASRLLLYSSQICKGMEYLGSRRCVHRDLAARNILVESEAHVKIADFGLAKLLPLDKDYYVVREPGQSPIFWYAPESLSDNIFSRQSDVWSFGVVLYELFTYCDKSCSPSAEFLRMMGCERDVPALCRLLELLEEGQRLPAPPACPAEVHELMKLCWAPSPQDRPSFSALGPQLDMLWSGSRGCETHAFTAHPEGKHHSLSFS

Chain of TYK2 JH2 domain (P29597 589-875): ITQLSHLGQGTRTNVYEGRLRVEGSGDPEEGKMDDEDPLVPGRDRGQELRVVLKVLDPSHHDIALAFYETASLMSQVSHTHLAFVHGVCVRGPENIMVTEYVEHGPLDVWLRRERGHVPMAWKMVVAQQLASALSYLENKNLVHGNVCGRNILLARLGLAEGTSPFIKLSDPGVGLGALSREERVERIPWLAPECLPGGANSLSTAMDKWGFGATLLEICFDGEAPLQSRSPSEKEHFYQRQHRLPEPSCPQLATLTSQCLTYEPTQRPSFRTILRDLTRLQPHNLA

COc1c(-c2ncn(C)n2)ccnc1Nc1cc(Nc2ccc(-c3cn(C)cn3)cn2)ncc1C(=O)C1CC1 [Compound 15L] was tested, and the pIC50 (TYK2 JH2 domain) was 7.30 to 8.30, the pIC50 (human JAK1) was ≤ 6.30 and the pIC50 (human JAK2) was ≤ 6.30. The pIC50 (human JAK3) was ≤ 6.30.

For CCC(=O)c1cnc(Nc2ccc(-c3ncn(C)n3)cn2)cc1Nc1nccc(-c2ncn(C)n2)c1OC [Compound 15M], the pIC50 (TYK2 JH2 domain) was 7.30 to 8.30, the pIC50 (human JAK1) was ≤ 6.30 and the pIC50 (human JAK2) was ≤ 6.30. For the same compound, the pIC50 (human JAK3) was ≤ 6.30.

COc1c(Nc2cc(Nc3ccc(-c4ncn(C)n4)cn3)ncc2C(=O)C2CC2)cccc1-c1ncn(C)n1 [Compound 15N] was tested, and the pIC50 (TYK2 JH2 domain) was 7.30 to 8.30, the pIC50 (human JAK1) was ≤ 6.30 and the pIC50 (human JAK2) was ≤ 6.30. The pIC50 (human JAK3) was ≤ 6.30.

For COc1c(-c2ncn(C)n2)ccnc1Nc1cc(Nc2ccc(-c3ncn(C)n3)cn2)ncc1C(=O)C1CC1 [Compound 15O], the pIC50 (TYK2 JH2 domain) was 7.30 to 8.30, the pIC50 (human JAK1) was ≤ 6.30 and the pIC50 (human JAK2) was ≤ 6.30. The pIC50 (human JAK3) was ≤ 6.30.

For CCC(=O)c1cnc(Nc2ccc(-n3ccnc3)cn2)cc1Nc1nccc(-c2ncn(C)n2)c1OC [Compound 15P], the pIC50 (TYK2 JH2 domain) was > 8.30, the pIC50 (human JAK1) was ≤ 6.30 and the pIC50 (human JAK2) was ≤ 6.30. The pIC50 (human JAK3) was ≤ 6.30.

For COc1c(Nc2cc(Nc3ccc(-n4ccnc4)cn3)ncc2C(=O)C2CC2)cccc1-c1ncn(C)n1 [Compound 15Q], the pIC50 (TYK2 JH2 domain) was > 8.30, the pIC50 (human JAK1) was ≤ 6.30 and the pIC50 (human JAK2) was ≤ 6.30. The pIC50 (human JAK3) was ≤ 6.30.

For COc1c(-c2ncn(C)n2)ccnc1Nc1cc(Nc2ccc(-n3ccnc3)cn2)ncc1C(=O)C1CC1 [Compound 15R], the pIC50 (TYK2 JH2 domain) was 7.30 to 8.30, the pIC50 (human JAK1) was ≤ 6.30 and the pIC50 (human JAK2) was ≤ 6.30. The pIC50 (human JAK3) was ≤ 6.30.

For CCC(=O)c1cnc(Nc2ccn(-c3ccccc3)c(=O)n2)cc1Nc1nccc(-c2ncn(C)n2)c1OC [Compound 15S], the pIC50 (TYK2 JH2 domain) was 7.30 to 8.30, the pIC50 (human JAK1) was ≤ 6.30 and the pIC50 (human JAK2) was ≤ 6.30. The pIC50 (human JAK3) was ≤ 6.30.

In the case of [2H]C([2H])([2H])CC(=O)c1cnc(Nc2ccn(-c3ccccc3)c(=O)n2)cc1Nc1cccc(-c2ncn(C)n2)c1OC [Compound 15T], the pIC50 (TYK2 JH2 domain) was > 8.30, the pIC50 (human JAK1) was ≤ 6.30 and the pIC50 (human JAK2) was ≤ 6.30. The pIC50 (human JAK3) was ≤ 6.30.

With CCC(=O)c1cnc(Nc2ccc(-n3ccccc3=O)cn2)cc1Nc1nccc(-c2ncn(C)n2)c1OC [Compound 15U] the pIC50 (TYK2 JH2 domain) was 7.30 to 8.30, the pIC50 (human JAK1) was ≤ 6.30 and the pIC50 (human JAK2) was ≤ 6.30. The pIC50 (human JAK3) was ≤ 6.30.

CCC(=O)c1cnc(Nc2ccc(-n3ccncc3=O)cn2)cc1Nc1cccc(-c2ncn(C)n2)c1OC [Compound 15V] was tested, and the pIC50 (TYK2 JH2 domain) was > 8.30, the pIC50 (human JAK1) was ≤ 6.30 and the pIC50 (human JAK2) was ≤ 6.30. For the same compound, the pIC50 (human JAK3) was ≤ 6.30.

With CCC(=O)c1cnc(Nc2ccc(-c3ccc[nH]c3=O)cn2)cc1Nc1cccc(-c2ncn(C)n2)c1OC [Compound 15W] the pIC50 (TYK2 JH2 domain) was 7.30 to 8.30, the pIC50 (human JAK1) was ≤ 6.30 and the pIC50 (human JAK2) was 6.30 to 7.30. The pIC50 (human JAK3) was 6.30 to 7.30.

For CCC(=O)c1cnc(Nc2ccc(-n3ccnc(C)c3=O)cn2)cc1Nc1cccc(-c2ncn(C)n2)c1OC [Compound 15X], the pIC50 (TYK2 JH2 domain) was 7.30 to 8.30, the pIC50 (human JAK1) was ≤ 6.30 and the pIC50 (human JAK2) was 6.30 to 7.30. For the same compound, the pIC50 (human JAK3) was 6.30 to 7.30.

For CCC(=O)c1cnc(Nc2ccc(-n3cnccc3=O)cn2)cc1Nc1cccc(-c2ncn(C)n2)c1OC [Compound 15Y], the pIC50 (TYK2 JH2 domain) was > 8.30, the pIC50 (human JAK1) was ≤ 6.30 and the pIC50 (human JAK2) was 6.30 to 7.30. The pIC50 (human JAK3) was 6.30 to 7.30.

In the case of CCC(=O)c1cnc(Nc2ccc(-n3nc(C)ccc3=O)cn2)cc1Nc1cccc(-c2ncn(C)n2)c1OC [Compound 15Z], the pIC50 (TYK2 JH2 domain) was 7.30 to 8.30, the pIC50 (human JAK1) was ≤ 6.30 and the pIC50 (human JAK2) was ≤ 6.30. The pIC50 (human JAK3) was ≤ 6.30.

CCC(=O)c1cnc(Nc2ccc(-c3cccn(C)c3=O)cn2)cc1Nc1cccc(-c2ncn(C)n2)c1OC [Compound 16A, 6′-((4-((2-methoxy-3-(1-methyl-1H-1,2,4-triazol-3-yl)phenyl)amino)-5-propionylpyridin-2-yl)amino)-1-methyl-[3,3′-bipyridin]-2(1H)-one] was tested, and the pIC50 (TYK2 JH2 domain) was > 8.30, the pIC50 (human JAK1) was ≤ 6.30 and the pIC50 (human JAK2) was 6.30 to 7.30. It also gave a pIC50 (human JAK3) of 6.30 to 7.30.

CCC(=O)c1cnc(Nc2cc(CN(C)C)ncn2)cc1Nc1cccc(-c2ncn(C)n2)c1OC [Compound 17A, 1-(6-((6-((dimethylamino)methyl)pyrimidin-4-yl)amino)-4-((2-methoxy-3-(1-methyl-1H-1,2,4-triazol-3-yl)phenyl)amino)pyridin-3-yl)propan-1-one] was tested, and the pIC50 (TYK2 JH2 domain) was > 8.30, the pIC50 (human JAK1) was ≤ 6.30 and the pIC50 (human JAK2) was ≤ 6.30. The pIC50 (human JAK3) was ≤ 6.30.

In the case of CCC(=O)c1cnc(Nc2ccc(O[C@@H]3CCOC3)c(C)n2)cc1Nc1cccc(-c2ncn(C)n2)c1OC [Compound 18AAAA], the pIC50 (TYK2 JH2 domain) was > 8.30, the pIC50 (human JAK1) was ≤ 6.30 and the pIC50 (human JAK2) was 6.30 to 7.30. For the same compound, the pIC50 (human JAK3) was 6.30 to 7.30.

In the case of CCC(=O)c1cnc(Nc2cnc(O[C@H]3CN(C)C[C@@H]3F)cn2)cc1Nc1cccc(-c2ncn(C)n2)c1OC [Compound 18AAA], the pIC50 (TYK2 JH2 domain) was 7.30 to 8.30, the pIC50 (human JAK1) was ≤ 6.30 and the pIC50 (human JAK2) was ≤ 6.30. The pIC50 (human JAK3) was ≤ 6.30.

In the case of CCC(=O)c1cnc(Nc2ccc(OCC3COC3)cn2)cc1Nc1cccc(-c2ncn(C)n2)c1OC [Compound 18AA], the pIC50 (TYK2 JH2 domain) was > 8.30, the pIC50 (human JAK1) was ≤ 6.30 and the pIC50 (human JAK2) was 6.30 to 7.30. The pIC50 (human JAK3) was 6.30 to 7.30.

For CCC(=O)c1cnc(Nc2ncc(OC3COC3)cc2F)cc1Nc1cccc(-c2ncn(C)n2)c1OC [Compound 18BBBB], the pIC50 (TYK2 JH2 domain) was 7.30 to 8.30, the pIC50 (human JAK1) was ≤ 6.30 and the pIC50 (human JAK2) was ≤ 6.30. The pIC50 (human JAK3) was ≤ 6.30.
